Results: US5223526A, “Pyrazole carboxanilide fungicides and use” (Monsanto Company, priority 1992, dated 1993)
Like-named read-outs stand apart in the source and are kept apart here.

Experiments:
Botrytis cinerea [1] = assay: Eggplant grey mold; assay type: in vivo; design: scale not given here; details: inoculated 24 h later, rated after 3-4 days; for Disease Control Rating at 500 ppm: eggplant sprayed with 500 ppm
Procedure, shortened: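 Protective test: compound formulations (2:3 acetone:water, 0.5% Tween 20; 500, 100 or 20 ppm) sprayed on 14-18-day-old plants, with spore inoculum (4×10^6 spore/mL) applied a day later. Disease control rated on Botrytis lesions after 3-4 days at 23 °C and 100% humidity.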

succinate dehydrogenase = biological target: T1, succinate dehydrogenase (Botrytis cinerea, UniProt A0A384J5E4+A0A384J8V8+A0A384JHJ5); assay: Enzyme inhibition: succinate dehydrogenase activity in Botrytis cinerea mitochondria (DCPIP reduction); assay type: biochemical; details: concentration required to inhibit the rate of DCPIP reduction by 50%; Botrytis cinerea isolate Nick mitochondria; read-out: I50 (μM conc.)
T1 construct: succinate-DCPIP reductase assay with KCN
T1 sequence (A0A384J5E4 1-300): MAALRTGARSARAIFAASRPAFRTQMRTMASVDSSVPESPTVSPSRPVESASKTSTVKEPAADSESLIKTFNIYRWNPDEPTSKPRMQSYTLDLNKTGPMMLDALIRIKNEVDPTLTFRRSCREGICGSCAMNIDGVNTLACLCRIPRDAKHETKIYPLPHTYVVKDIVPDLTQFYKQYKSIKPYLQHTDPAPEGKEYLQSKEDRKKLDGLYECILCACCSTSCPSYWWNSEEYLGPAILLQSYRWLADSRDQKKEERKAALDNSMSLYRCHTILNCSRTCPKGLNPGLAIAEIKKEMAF
T1 sequence (A0A384J8V8 1-189): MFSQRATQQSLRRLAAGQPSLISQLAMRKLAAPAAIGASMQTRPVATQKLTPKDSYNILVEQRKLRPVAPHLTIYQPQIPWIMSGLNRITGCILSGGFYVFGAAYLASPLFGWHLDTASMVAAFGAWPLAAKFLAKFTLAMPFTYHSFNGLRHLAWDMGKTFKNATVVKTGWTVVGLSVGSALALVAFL
T1 sequence (A0A384JHJ5 1-192): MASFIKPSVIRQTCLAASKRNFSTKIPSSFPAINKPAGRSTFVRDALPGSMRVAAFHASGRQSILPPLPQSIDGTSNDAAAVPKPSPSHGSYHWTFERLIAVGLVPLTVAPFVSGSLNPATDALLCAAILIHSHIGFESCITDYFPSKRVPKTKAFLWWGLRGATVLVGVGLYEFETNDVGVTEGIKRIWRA
T1 sequence (A0A384K456 1-647 partner): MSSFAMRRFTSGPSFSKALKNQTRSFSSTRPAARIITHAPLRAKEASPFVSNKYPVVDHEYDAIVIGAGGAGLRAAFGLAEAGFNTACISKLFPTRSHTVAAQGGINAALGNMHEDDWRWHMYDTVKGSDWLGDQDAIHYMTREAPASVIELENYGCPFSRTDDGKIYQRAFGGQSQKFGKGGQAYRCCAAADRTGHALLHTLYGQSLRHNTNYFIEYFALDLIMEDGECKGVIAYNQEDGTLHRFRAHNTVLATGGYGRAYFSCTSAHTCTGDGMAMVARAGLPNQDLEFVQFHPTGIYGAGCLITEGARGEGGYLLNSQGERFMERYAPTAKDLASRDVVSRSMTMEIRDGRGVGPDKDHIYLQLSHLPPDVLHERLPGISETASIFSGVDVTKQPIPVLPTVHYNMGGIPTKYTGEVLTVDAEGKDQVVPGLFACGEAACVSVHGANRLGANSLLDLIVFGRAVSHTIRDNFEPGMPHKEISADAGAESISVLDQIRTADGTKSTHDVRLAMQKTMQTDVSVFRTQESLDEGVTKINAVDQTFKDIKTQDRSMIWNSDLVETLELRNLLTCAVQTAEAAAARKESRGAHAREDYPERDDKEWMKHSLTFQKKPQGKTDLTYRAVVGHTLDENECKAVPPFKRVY
Procedure, shortened: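 Crude mitochondria from Botrytis cinerea isolate Nick mycelia, prepared by bead-beating and differential centrifugation, started reactions. SDH activity followed as DCPIP reduction at 600 nm in 50 mM K-phosphate pH 7.2 with 1 mM KCN, 45 μM DCPIP, 17 mM succinate, 1% acetone. I50 from semilog inhibition plots, corrected for succinate-free rates.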

Rhizoctonia solani = assay: Rice sheath blight; assay type: in vivo; design: scale not given here; details: inoculated two days later, rated after 7 days, average of five plants; for Disease Control Rating at 0.5 mg/mL: foliage and soil sprayed with 0.5 mg/mL
Procedure, shortened: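 Rice plants 11–15 days old had foliage and soil sprayed with 0.5, 0.1 or 0.02 mg/mL Compound A in water/acetone/Tween 20, then kept in flooded trays. Two days later, rice-grain Rhizoctonia solani inoculum went to plant bases; disease control scored versus untreated after 7 days at 25 °C, high humidity, averaging five plants.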

Botrytis cinerea [2] = assay: Vine grey mold (grape berries); assay type: in vivo; details: for pest or weed control at 50 ppm: read-out: % DISEASE CONTROL 50 ppm; for pest or weed control at 200 ppm: read-out: % DISEASE CONTROL 200 ppm
Procedure, shortened: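 Preventive berry test: compound at 50 or 200 ppm (acetone/water, 0.05% Tween 20) applied one day before inoculation with 10^6 spores/mL Botrytis conidia. After 7-10 days at 20 °C under 12 h light, infected surface area rated; disease control expressed as percent reduction from control mean; repeated-test values averaged.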

[3] = system: Botrytis cinerea Mitochondria; details: 1 μM concentration; cited from earlier work

Row | SMILES | Disease Control Rating at 500 ppm (Botrytis cinerea [1]) | IC50 (succinate dehydrogenase) [µM] | Disease Control Rating at 0.02 mg/mL (Rhizoctonia solani; foliage and soil sprayed with 0.02 mg/mL) | Disease Control Rating at 0.1 mg/mL (Rhizoctonia solani; foliage and soil sprayed with 0.1 mg/mL) | Disease Control Rating at 0.5 mg/mL (Rhizoctonia solani) | pest or weed control at 50 ppm (Botrytis cinerea [2]) [%] | pest or weed control at 200 ppm (Botrytis cinerea [2]) [%] | inhibition (respiratory inhibition) [3] [%] | Disease Control Rating at 20 ppm (Botrytis cinerea [1]; eggplant sprayed with 20 ppm) | Disease Control Rating at 100 ppm (Botrytis cinerea [1]; eggplant sprayed with 100 ppm) | pest or weed control at 50 ppm (Botrytis cinerea [2]; grape berries treated with 50 ppm, average of six berries, 7-10 days) [%] | pest or weed control at 200 ppm (Botrytis cinerea [2]; grape berries treated with 200 ppm, average of six berries, 7-10 days) [%]
1 | CC1=C(C(=O)Nc2ccccc2)SCCO1 [Carboxin, carboxin, reference compound] | 0 | 0.72 ± 0.3 | 0 | 1 | 3 | 0 | 0 | 68 | – | – | – | –
2 | CC1CC=C(c2ccccc2NC(=O)c2cn(C)nc2C(F)(F)F)C1 (stereo not drawn) [Example 150, 1H-pyrazole-4-carboxamide, N-[2-(4-methyl-1-cyclopenten-1-yl)phenyl]-1-methyl-3-(trifluoromethyl)-] | 2 | 0.026 | – | – | 3 | – | – | – | 0 | 0 | 40 | 100
